Measured values: PubChem BioAssay AID180 (DTP/NCI, 2004)
Values joined by “and” are separate entries in the source; they are usually repeats but may differ in a detail not shown here. Identical values can stand only once.

Test system: BDF1 mice, Adenocarcinoma 755 s.c., tumor weight T/C
Test: NCI In Vivo Anticancer Drug Screen. Data for tumor model Adenocarcinoma 755 (subcutaneous) in B6D2F1 (BDF1) mice
Conditions: endpoint: mean tumor weight, higher = larger tumour
Method in brief: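 In vivo antitumor screen on a transplantable tumor line. Result equals the measure in compound-treated animals divided by the same measure in vehicle controls.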

[1] = dose: 2.0 mg/kg/injection, schedule: Q01DX011 (ip), vehicle: carboxymethylcellulose (CMC)

`Nc1nc(SCc2ccccc2)c2[nH]cnc2n1` was tested, and the T/C (dose: 0.37 mg/kg/injection, schedule: Q01DX011 (ip), vehicle: carboxymethylcellulose (CMC)) was 114 % of control, the T/C (dose: 0.37 mg/kg/injection, schedule: Q01DX011 (oral), vehicle: carboxymethylcellulose (CMC)) was 71 % of control and the T/C (dose: 0.75 mg/kg/injection, schedule: Q01DX011 (ip), vehicle: carboxymethylcellulose (CMC)) was 38 % of control. For the same molecule, the T/C (dose: 0.75 mg/kg/injection, schedule: Q01DX011 (oral), vehicle: carboxymethylcellulose (CMC)) was 52 % of control, the T/C (dose: 1.0 mg/kg/injection, schedule: Q#A X021 (ip), vehicle: carboxymethylcellulose (CMC)) was 45 % of control and the T/C (dose: 1.25 mg/kg/injection, schedule: Q01DX011 (ip), vehicle: carboxymethylcellulose (CMC)) was 53 % of control. The T/C (dose: 1.5 mg/kg/injection, schedule: Q01DX011 (im), vehicle: carboxymethylcellulose (CMC)) was 69 % of control, the T/C (dose: 1.5 mg/kg/injection, schedule: Q01DX011 (ip), vehicle: carboxymethylcellulose (CMC)) was 41 % of control and the T/C (dose: 1.5 mg/kg/injection, schedule: Q01DX011 (oral), vehicle: carboxymethylcellulose (CMC)) was 61 % of control. For the same molecule, the T/C (dose: 1.75 mg/kg/injection, schedule: Q01DX001 (ip), vehicle: carboxymethylcellulose (CMC)) was 94 % of control and 114 % of control, the T/C (dose: 2.0 mg/kg/injection, schedule: Q01DX006 (iv), vehicle: carboxymethylcellulose (CMC)) was 91 % of control and the T/C (dose: 2.0 mg/kg/injection, schedule: Q01DX011 (im), vehicle: carboxymethylcellulose (CMC)) was 38 % of control. The T/C [1] was 33 % of control, the T/C (dose: 2.0 mg/kg/injection, schedule: Q01DX011 (sc), vehicle: carboxymethylcellulose (CMC)) was 56 % of control and the T/C (dose: 2.0 mg/kg/injection, schedule: Q#A X021 (ip), vehicle: carboxymethylcellulose (CMC)) was 15 % of control. For the same molecule, the T/C (dose: 2.5 mg/kg/injection, schedule: Q01DX011 (ip), vehicle: carboxymethylcellulose (CMC)) was 32 % of control, the T/C (dose: 3.0 mg/kg/injection, schedule: Q01DX011 (im), vehicle: carboxymethylcellulose (CMC)) was 12 % of control and the T/C (dose: 3.0 mg/kg/injection, schedule: Q01DX011 (ip), vehicle: carboxymethylcellulose (CMC)) was 5 % of control. The T/C (dose: 3.0 mg/kg/injection, schedule: Q01DX011 (oral), vehicle: carboxymethylcellulose (CMC)) was 19 % of control, the T/C (dose: 3.5 mg/kg/injection, schedule: Q01DX001 (ip), vehicle: carboxymethylcellulose (CMC)) was 112 % of control and 115 % of control and the T/C (dose: 4.0 mg/kg/injection, schedule: Q01DX006 (iv), vehicle: carboxymethylcellulose (CMC)) was 40 % of control. For the same molecule, the T/C (dose: 4.0 mg/kg/injection, schedule: Q01DX011 (im), vehicle: carboxymethylcellulose (CMC)) was 10 % of control, the T/C (dose: 4.0 mg/kg/injection, schedule: Q01DX011 (ip), vehicle: carboxymethylcellulose (CMC)) was 8 % of control and the T/C (dose: 4.0 mg/kg/injection, schedule: Q01DX011 (sc), vehicle: carboxymethylcellulose (CMC)) was 13 % of control. For the same molecule, the T/C (dose: 7.0 mg/kg/injection, schedule: Q01DX001 (ip), vehicle: carboxymethylcellulose (CMC)) was 20 % of control and 33 % of control, the T/C (dose: 8.0 mg/kg/injection, schedule: Q01DX006 (iv), vehicle: carboxymethylcellulose (CMC)) was 13 % of control and the T/C (dose: 8.0 mg/kg/injection, schedule: Q01DX011 (im), vehicle: carboxymethylcellulose (CMC)) was 3 % of control. The T/C (dose: 8.0 mg/kg/injection, schedule: Q01DX011 (ip), vehicle: carboxymethylcellulose (CMC)) was 3 % of control, the T/C (dose: 8.0 mg/kg/injection, schedule: Q01DX011 (sc), vehicle: carboxymethylcellulose (CMC)) was 4 % of control and the T/C (dose: 8.0 mg/kg/injection, schedule: Q03DX004 (ip), vehicle: carboxymethylcellulose (CMC)) was 25 % of control. The T/C (dose: 14.0 mg/kg/injection, schedule: Q07DX002 (ip), vehicle: carboxymethylcellulose (CMC)) was 34 % of control, the T/C (dose: 16.0 mg/kg/injection, schedule: Q01DX006 (iv), vehicle: carboxymethylcellulose (CMC)) was 7 % of control and the T/C (dose: 16.0 mg/kg/injection, schedule: Q01DX011 (im), vehicle: carboxymethylcellulose (CMC)) was 2 % of control. For the same molecule, the T/C (dose: 16.0 mg/kg/injection, schedule: Q01DX011 (ip), vehicle: carboxymethylcellulose (CMC)) was 3 % of control, the T/C (dose: 16.0 mg/kg/injection, schedule: Q01DX011 (sc), vehicle: carboxymethylcellulose (CMC)) was 3 % of control and the T/C (dose: 16.0 mg/kg/injection, schedule: Q03DX004 (ip), vehicle: carboxymethylcellulose (CMC)) was 8 % of control. The T/C (dose: 24.0 mg/kg/injection, schedule: Q01DX006 (iv), vehicle: carboxymethylcellulose (CMC)) was 4 % of control, the T/C (dose: 24.0 mg/kg/injection, schedule: Q01DX011 (im), vehicle: carboxymethylcellulose (CMC)) was 4 % of control and the T/C (dose: 24.0 mg/kg/injection, schedule: Q01DX011 (ip), vehicle: carboxymethylcellulose (CMC)) was 3 % of control. The T/C (dose: 24.0 mg/kg/injection, schedule: Q01DX011 (sc), vehicle: carboxymethylcellulose (CMC)) was 3 % of control, the T/C (dose: 28.0 mg/kg/injection, schedule: Q01DX001 (ip), vehicle: carboxymethylcellulose (CMC)) was 12 % of control and the T/C (dose: 28.0 mg/kg/injection, schedule: Q07DX002 (ip), vehicle: carboxymethylcellulose (CMC)) was 30 % of control. The T/C (dose: 32.0 mg/kg/injection, schedule: Q01DX006 (iv), vehicle: carboxymethylcellulose (CMC)) was 5 % of control, the T/C (dose: 32.0 mg/kg/injection, schedule: Q01DX011 (im), vehicle: carboxymethylcellulose (CMC)) was 3 % of control and the T/C (dose: 48.0 mg/kg/injection, schedule: Q01DX011 (sc), vehicle: carboxymethylcellulose (CMC)) was 2 % of control. The T/C (dose: 56.0 mg/kg/injection, schedule: Q01DX001 (ip), vehicle: carboxymethylcellulose (CMC)) was 10 % of control, the T/C (dose: 56.0 mg/kg/injection, schedule: Q07DX002 (ip), vehicle: carboxymethylcellulose (CMC)) was 18 % of control and the T/C (dose: 64.0 mg/kg/injection, schedule: Q01DX011 (sc), vehicle: carboxymethylcellulose (CMC)) was 3 % of control. The T/C (dose: 112.0 mg/kg/injection, schedule: Q01DX001 (ip), vehicle: carboxymethylcellulose (CMC)) was 10 % of control and the T/C (dose: 112.0 mg/kg/injection, schedule: Q07DX002 (ip), vehicle: carboxymethylcellulose (CMC)) was 1 % of control.

`[Cl][Pt+2]([Cl])([Cl])[Cl].[Na+].[S-]c1ncnc2nc[nH]c12.[S-]c1ncnc2nc[nH]c12` was tested, and the T/C (dose: 1.0 mg/kg/injection, schedule: Q01DX011 (ip), vehicle: carboxymethylcellulose (CMC)) was 90 % of control, the T/C (dose: 1.7 mg/kg/injection, schedule: Q01DX011 (ip), vehicle: carboxymethylcellulose (CMC)) was 101 % of control and the T/C [1] was 43 % of control. For the same molecule, the T/C (dose: 3.5 mg/kg/injection, schedule: Q01DX011 (ip), vehicle: carboxymethylcellulose (CMC)) was 31 % of control, the T/C (dose: 4.0 mg/kg/injection, schedule: Q01DX011 (ip), vehicle: saline) was 5 % of control and the T/C (dose: 7.0 mg/kg/injection, schedule: Q01DX011 (ip), vehicle: carboxymethylcellulose (CMC)) was 3 % of control and 6 % of control. The T/C (dose: 8.0 mg/kg/injection, schedule: Q01DX011 (ip), vehicle: saline) was 4 % of control, the T/C (dose: 10.0 mg/kg/injection, schedule: Q01DX011 (ip), vehicle: carboxymethylcellulose (CMC)) was 21 % of control and the T/C (dose: 14.0 mg/kg/injection, schedule: Q01DX011 (ip), vehicle: carboxymethylcellulose (CMC)) was 1 % of control and 2 % of control. For the same molecule, the T/C (dose: 20.0 mg/kg/injection, schedule: Q01DX011 (ip), vehicle: carboxymethylcellulose (CMC)) was 1 % of control, the T/C (dose: 28.0 mg/kg/injection, schedule: Q01DX011 (ip), vehicle: carboxymethylcellulose (CMC)) was 5 % of control and the T/C (dose: 32.0 mg/kg/injection, schedule: Q01DX011 (ip), vehicle: saline) was 1 % of control. For the same molecule, the T/C (dose: 43.8 mg/kg/injection, schedule: Q01DX011 (oral), vehicle: saline) was 96 % of control, the T/C (dose: 87.5 mg/kg/injection, schedule: Q01DX011 (oral), vehicle: saline) was 12 % of control and the T/C (dose: 175.0 mg/kg/injection, schedule: Q01DX011 (oral), vehicle: saline) was 7 % of control.

With `CC(=O)[C@H]1[C@H](O)C[C@H]2[C@@H]3CCC4=CC(=O)CC[C@]4(C)[C@@]3(F)[C@@H](O)C[C@@]21C` the T/C (dose: 100.0 mg/kg/injection, schedule: Q01DX011 (sc), vehicle: steriod suspending solution) was 48 % of control, the T/C (dose: 125.0 mg/kg/injection, schedule: Q01DX011 (oral), vehicle: steriod suspending solution) was 74 % of control and the T/C (dose: 200.0 mg/kg/injection, schedule: Q01DX011 (sc), vehicle: steriod suspending solution) was 38 % of control. For the same molecule, the T/C (dose: 250.0 mg/kg/injection, schedule: Q01DX011 (oral), vehicle: steriod suspending solution) was 57 % of control, the T/C (dose: 400.0 mg/kg/injection, schedule: Q01DX011 (sc), vehicle: steriod suspending solution) was 36 % of control and the T/C (dose: 500.0 mg/kg/injection, schedule: Q01DX011 (oral), vehicle: steriod suspending solution) was 62 % of control. For the same molecule, the T/C (dose: 800.0 mg/kg/injection, schedule: Q01DX011 (sc), vehicle: steriod suspending solution) was 26 % of control and the T/C (dose: 1000.0 mg/kg/injection, schedule: Q01DX011 (oral), vehicle: steriod suspending solution) was 58 % of control.

`CCOC1CCCC(n2cnc3c(=S)nc[nH]c32)O1` (stereo not drawn) was tested, and the T/C (dose: 4.69 mg/kg/injection, schedule: Q01DX011 (ip), vehicle: methylcellulose (MC)) was 29 % of control and the T/C (dose: 9.38 mg/kg/injection, schedule: Q01DX011 (ip), vehicle: methylcellulose (MC)) was 2 % of control.

In the case of `CSc1ncc(C)c(=O)[nH]1`, the T/C (dose: 15.0 mg/kg/injection, schedule: Q01DX011 (ip), vehicle: methylcellulose (MC)) is reported as 113 % of control, the T/C (dose: 31.0 mg/kg/injection, schedule: Q01DX011 (ip), vehicle: methylcellulose (MC)) is reported as 124 % of control and the T/C (dose: 62.0 mg/kg/injection, schedule: Q01DX011 (ip), vehicle: methylcellulose (MC)) is reported as 99 % of control.
